According to PubChem BioAssay AID248 (DTP/NCI, 2004):
Inconclusive results and toxic doses are left out. Rule as the data show it: active = T/C of 150% or more; inactive = T/C below 125%.

Test system: L1210 leukemia ip in BDF1 mice, survival T/C
Experiment: NCI In Vivo Anticancer Drug Screen. Data for tumor model L1210 Leukemia (intraperitoneal) in B6D2F1 (BDF1) mice
Details: endpoint: mean survival time, higher = longer survival
In short: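 Tumor cells were implanted, animals were treated, and survival was followed. The result divides the treated measurement by the vehicle-control measurement.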

[1] = dose: 100.0 mg/kg/injection, schedule: Q01DX001 (ip), vehicle: saline
[2] = dose: 400.0 mg/kg/injection, schedule: Q01DX001 (ip), vehicle: saline
[3] = dose: 200.0 mg/kg/injection, schedule: Q01DX001 (ip), vehicle: saline
[4] = dose: 100.0 mg/kg/injection, schedule: Q01DX001 (ip), vehicle: other

Measured: T/C

COc1ccc2c(c1)C(Br)N(S(=O)(=O)c1ccc(C)cc1)CCC2=O (centres undefined)
inactive: dose: 25.0 mg/kg/injection, schedule: Q01DX009 (ip), vehicle: other 97 % of control | dose: 50.0 mg/kg/injection, schedule: Q01DX009 (ip), vehicle: other 95 % of control | dose: 100.0 mg/kg/injection, schedule: Q01DX009 (ip), vehicle: other 92 % of control | dose: 100.0 mg/kg/injection, schedule: Q04DX003 (ip), vehicle: other 92 % of control | dose: 200.0 mg/kg/injection, schedule: Q01DX009 (ip), vehicle: other 104 % of control | dose: 200.0 mg/kg/injection, schedule: Q04DX003 (ip), vehicle: other 97 % of control | dose: 400.0 mg/kg/injection, schedule: Q04DX003 (ip), vehicle: other 89 % of control

O=C(OCc1ccccc1)C1CCCN1Cc1ccc2c(c1)OCO2 (centres undefined)
inactive: [1] 93 % of control | [2] 96 % of control

CC1=C(c2ccccc2)C(O)(c2ccccc2)C(C)C1=O (centres undefined)
inactive: dose: 50.0 mg/kg/injection, schedule: Q01DX009 (ip), vehicle: Klucel (hydroxypropylcellulose) (HPC) 101 % of control | dose: 100.0 mg/kg/injection, schedule: Q01DX009 (ip), vehicle: Klucel (hydroxypropylcellulose) (HPC) 93 % of control | dose: 200.0 mg/kg/injection, schedule: Q01DX009 (ip), vehicle: Klucel (hydroxypropylcellulose) (HPC) 95 % of control

BrC(Br)c1ccccc1C(Br)Br
inactive: dose: 100.0 mg/kg/injection, schedule: Q01DX009 (ip), vehicle: gum acacia 98 % of control | dose: 100.0 mg/kg/injection, schedule: Q04DX003 (ip), vehicle: gum acacia 99 % of control | dose: 200.0 mg/kg/injection, schedule: Q01DX009 (ip), vehicle: gum acacia 98 % of control | dose: 200.0 mg/kg/injection, schedule: Q04DX003 (ip), vehicle: gum acacia 108 % of control | dose: 400.0 mg/kg/injection, schedule: Q04DX003 (ip), vehicle: gum acacia 97 % of control

COP1(=O)OCC(C)O1 (centres undefined)
inactive: [1] 113 % of control | [3] 102 % of control | [2] 94 % of control

CSc1ncnc2c1nnn2C1CC(CO)C(O)C1O (centres undefined)
inactive: dose: 100.0 mg/kg/injection, schedule: Q01DX001 (ip), vehicle: Klucel (hydroxypropylcellulose) (HPC) 95 % of control | dose: 200.0 mg/kg/injection, schedule: Q01DX001 (ip), vehicle: Klucel (hydroxypropylcellulose) (HPC) 101 % of control | dose: 400.0 mg/kg/injection, schedule: Q01DX001 (ip), vehicle: Klucel (hydroxypropylcellulose) (HPC) 102 % of control

CC(C)C(NC(=O)C1CSC(C)(C)N1C=O)C(N)=O (centres undefined)
inactive: dose: 100.0 mg/kg/injection, schedule: Q04DX003 (ip), vehicle: saline with Tween-80 101 % of control | dose: 200.0 mg/kg/injection, schedule: Q04DX003 (ip), vehicle: saline with Tween-80 98 % of control | dose: 400.0 mg/kg/injection, schedule: Q04DX003 (ip), vehicle: saline with Tween-80 101 % of control

O=S1(=O)c2ccccc2Oc2ccccc21
inactive: dose: 50.0 mg/kg/injection, schedule: Q01DX001 (ip), vehicle: other 93 % of control | [4] 93 % of control | dose: 200.0 mg/kg/injection, schedule: Q01DX001 (ip), vehicle: other 100 % of control | dose: 400.0 mg/kg/injection, schedule: Q01DX001 (ip), vehicle: other 96 % of control

ClC(Cl)(Cl)SN1CCOCC1
inactive: dose: 50.0 mg/kg/injection, schedule: Q01DX009 (ip), vehicle: saline 106 % of control | dose: 100.0 mg/kg/injection, schedule: Q01DX009 (ip), vehicle: saline 95 % of control | dose: 200.0 mg/kg/injection, schedule: Q01DX009 (ip), vehicle: saline 104 % of control

Cc1ccc(C)c(Br)c1C
inactive: dose: 100.0 mg/kg/injection, schedule: Q01DX009 (ip), vehicle: saline with Tween-80 104 % of control | dose: 100.0 mg/kg/injection, schedule: Q04DX002 (ip), vehicle: saline with Tween-80 104 % of control | dose: 200.0 mg/kg/injection, schedule: Q01DX009 (ip), vehicle: saline with Tween-80 104 % of control | dose: 200.0 mg/kg/injection, schedule: Q04DX002 (ip), vehicle: saline with Tween-80 101 % of control | dose: 400.0 mg/kg/injection, schedule: Q01DX009 (ip), vehicle: saline with Tween-80 101 % of control | dose: 400.0 mg/kg/injection, schedule: Q04DX002 (ip), vehicle: saline with Tween-80 101 % of control

NC(N)=NC(N)=Nc1ccc(N=C(N)N=C(N)N)cc1
inactive: [4] 104 % of control

O=[N+]([O-])c1ccc(/C=N/C(/N=C/c2ccc([N+](=O)[O-])cc2)c2ccc([N+](=O)[O-])cc2)cc1
inactive: dose: 75.0 mg/kg/injection, schedule: Q01DX009 (ip), vehicle: carboxymethylcellulose (CMC) 94 % of control | dose: 100.0 mg/kg/injection, schedule: Q04DX003 (ip), vehicle: carboxymethylcellulose (CMC) 97 % of control | dose: 150.0 mg/kg/injection, schedule: Q01DX009 (ip), vehicle: carboxymethylcellulose (CMC) 90 % of control | dose: 200.0 mg/kg/injection, schedule: Q04DX003 (ip), vehicle: carboxymethylcellulose (CMC) 95 % of control | dose: 300.0 mg/kg/injection, schedule: Q01DX009 (ip), vehicle: carboxymethylcellulose (CMC) 92 % of control | dose: 400.0 mg/kg/injection, schedule: Q04DX003 (ip), vehicle: carboxymethylcellulose (CMC) 92 % of control

O=C(CBr)CCS(=O)(=O)c1ccc(Cl)cc1
inactive: dose: 5.0 mg/kg/injection, schedule: Q01DX009 (ip), vehicle: saline with Tween-80 102 % of control | dose: 5.0 mg/kg/injection, schedule: Q04DX003 (ip), vehicle: saline with Tween-80 101 % of control | dose: 10.0 mg/kg/injection, schedule: Q01DX009 (ip), vehicle: saline with Tween-80 104 % of control | dose: 10.0 mg/kg/injection, schedule: Q04DX003 (ip), vehicle: saline with Tween-80 103 % of control | dose: 20.0 mg/kg/injection, schedule: Q01DX009 (ip), vehicle: saline with Tween-80 97 % of control | dose: 20.0 mg/kg/injection, schedule: Q04DX003 (ip), vehicle: saline with Tween-80 97 % of control

CS(=O)(=O)OC1C2CCC(C2=C(c2ccccc2)c2ccccc2)C1OS(C)(=O)=O (centres undefined)
inactive: dose: 75.0 mg/kg/injection, schedule: Q01DX001 (ip), vehicle: carboxymethylcellulose (CMC) 93 % of control | dose: 150.0 mg/kg/injection, schedule: Q01DX001 (ip), vehicle: carboxymethylcellulose (CMC) 101 % of control | dose: 300.0 mg/kg/injection, schedule: Q01DX001 (ip), vehicle: carboxymethylcellulose (CMC) 91 % of control

Oc1ccccc1C=NC1CCCCC1.Oc1ccccc1C=NC1CCCCC1.[Ni+2]
inactive: dose: 100.0 mg/kg/injection, schedule: Q04DX003 (ip), vehicle: Klucel (hydroxypropylcellulose) (HPC) 96 % of control | dose: 100.0 mg/kg/injection, schedule: Q04DX003 (ip), vehicle: saline 94 % of control | dose: 200.0 mg/kg/injection, schedule: Q04DX003 (ip), vehicle: Klucel (hydroxypropylcellulose) (HPC) 92 % of control | dose: 200.0 mg/kg/injection, schedule: Q04DX003 (ip), vehicle: saline 96 % of control | dose: 400.0 mg/kg/injection, schedule: Q04DX003 (ip), vehicle: Klucel (hydroxypropylcellulose) (HPC) 90 % of control

CS(=O)(=O)OCCN(CCO)c1cn(C(c2ccccc2)(c2ccccc2)c2ccccc2)c(=O)n(C(c2ccccc2)(c2ccccc2)c2ccccc2)c1=O
inactive: dose: 50.0 mg/kg/injection, schedule: Q01DX001 (ip), vehicle: saline 94 % of control | [1] 105 % of control | [3] 97 % of control | [2] 103 % of control
